# Like-named read-outs stand apart in the source and are kept apart here. Marks after values point to notes of the source that are not given here.
# Legend:
# SA-1199B [1] = assay: Membrane potential (polarisation) assays, BacLight kit, DiOC2(3); assay type: cell-based, Staphylococcus aureus; conditions: 30 min; for depolarised S. aureus membrane: 10 µg/mL
# Experimental: Membrane potential assays were carried out by measuring the effect of 1 and 37a on the membrane potential using the BacLight Bacterial Membrane Potential Kit (Molecular Probes, Life Technologies) according to the manufacturer’s instructions. Briefly, SA-1199B was grown in MHB at 37 °C until reaching an OD600 of 0.6. Bacterial cells were then washed in PBS and diluted to 1 × 10^6 CFU/mL with filtered PBS (filter 0.22 µm) in flow cytometry tubes. Ten microliters of 3 mM 3,3-diethyloxacarbocyanine iodide (DiOC2(3) in DMSO) was added to each tube (final concentration 30 µM) and mixed. Then, 1 or 37a from a stock solution in DMSO (10 mg/mL) was added to reach final concentrations of 1, 5, and 10 µg/mL. As positive control, 10 µL of 500 µM carbonyl cyanide m-chlorophenylhydrazone (CCCP, final concentration 5 µM) was used to eradicate the proton gradient by eliminating the membrane potential. The samples were analysed after 30 min by measuring the fluorescence using a cytometer Attune NxT (ThermoFisher Scientific) with a laser emitting at 488 nm and collecting in the green and red channels. The red to green fluorescence ratio was determined and normalised against the emission from the DiOC2(3) blank tube having 1 ml of the bacterial suspension and a final concentration of DiOC2(3) of 30 µM. The results are presented as the percentage of depolarised membranes compared with the drug-free control.
# Since efflux pumps need a proton gradient along the bacterial membrane, its modification/disruption can lead to an efflux inhibition. However, this effect cannot be related to a specific EPI activity; on the contrary, it relies on a non-specific interruption of the energy source (protons) that efflux pumps use to extrude their substrates by an antiport mechanism. A typical example of a compound inhibiting efflux pumps activity by this non-specific mechanism is represented by carbonyl cyanide m-chlorophenyl hydrazone (CCCP). […] Membrane polarisation was assessed by cytofluorimeter analysis using the fluorescent probe 3,3-diethyloxacarbocyanine iodide (DiOC2(3)) as its distribution is proton gradient-sensitive.
# [2] = test system: human leukemic monocyte cell line (THP-1); assay: Cell viability assay (ATP bioluminescence); conditions: ratio between CC50 (THP-1) and minimum EPI concentration able to reduce by 4-fold CPX MIC
# Experimental: (§1) THP-1 cells were grown in RPMI 1640 supplemented with 10% heat-inactivated foetal calf serum, 10,000 units of penicillin, and 10 µg of streptomycin/mL overnight to confluence. […] Cell viability was then evaluated using an ATP bioluminescence kit (Via Light kit; Cambrex). Results are expressed as 50% cytotoxic concentration (CC50). The CC50 was defined as the concentration required to reduce the cell number by 50% compared to that for the untreated controls. Each concentration was tested in triplicate.
# [3] = parameters: method as in PMID 30067360; conditions: in silico and in vitro, mouse liver microsomes 2 h; cited from earlier work
# SA-1199B [4] = test system: SA-1199B; parameters: method as in PMID 30067360; conditions: as previously reported; cited from earlier work
# S. aureus SA-1199B = assay type: cell-based, Staphylococcus aureus; conditions: for compound concentration reducing the CPX MIC by 4-fold: chequerboard with CPX; for synergistic effect with CPX: compound concentration below 25 µg/mL
# Experimental: (§2) MICs assays were performed using broth microdilution method in 96 wells-microtiter plates, following the CLSI guidelines.
# (§3) Chequerboard assays and time-kill curves were performed as previously described.
# [5] = test system: human leukemic monocyte cell line (THP-1); parameters: method as in PMID 30067360; conditions: THP-1 cells; cited from earlier work
# [6] = test system: S. aureus strain SA-1199B (norA+/GrlA mutation); assay: Synergistic assays: compounds at 25 µg/mL with scalar concentrations of CPX; assay type: cell-based, Staphylococcus aureus; conditions: compound at 25 µg/mL
# Experimental: as §2
# (data not shown). […] Worthy of note, among the five active compounds, three were thiophene derivatives (35b, 36b and 37a) displaying their activity regardless of the position of the sulphur atom on the thiophene ring.
# NorA efflux pump = target: T1, NorA efflux pump (Staphylococcus aureus, UniProt P0A0J7); assay: EtBr efflux assays; assay type: cell-based; conditions: read-out: EtBr efflux inhibition
# T1 construct: monitoring bacterial fluorescence of SA-1199B, overexpressing norA gene; endogenous in cells; host or cells: Staphylococcus aureus SA-1199B (norA+/GrlA mutation)
# T1 sequence (P0A0J7 whole entry): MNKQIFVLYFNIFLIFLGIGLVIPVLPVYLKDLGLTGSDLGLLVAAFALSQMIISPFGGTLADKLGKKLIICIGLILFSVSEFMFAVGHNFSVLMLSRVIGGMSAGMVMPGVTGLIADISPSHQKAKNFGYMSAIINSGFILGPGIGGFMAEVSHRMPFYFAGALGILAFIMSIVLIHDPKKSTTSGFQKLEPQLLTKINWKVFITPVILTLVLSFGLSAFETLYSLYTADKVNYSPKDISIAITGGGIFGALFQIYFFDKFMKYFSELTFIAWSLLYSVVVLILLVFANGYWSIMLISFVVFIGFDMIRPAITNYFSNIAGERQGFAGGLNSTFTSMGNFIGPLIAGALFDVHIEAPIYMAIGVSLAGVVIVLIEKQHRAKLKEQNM
# Experimental: The loss of EtBr from S. aureus SA-1199B was determined fluorometrically as previously described. The effect of various concentrations of tested compounds on the EtBr efflux of SA-1199B was compared to that in their absence, allowing the calculation of the percentage reduction in efflux.
# Since EtBr is a known NorA substrate resulting fluorescent only when inside bacterial cells, monitoring bacterial fluorescence of SA-1199B, overexpressing norA gene, through a fluorimeter is a fast method to indirectly evaluate NorA inhibition. […] Indeed, we commonly consider as active NorA EPIs those compounds having an EtBr efflux inhibition ≥70%[17]^,[18].
# [7] = test system: S. aureus strain SA-1199 (norA wild-type); assay: Synergistic assay with CPX against norA wild-type strain; assay type: cell-based, Staphylococcus aureus; conditions: compound at 25 µg/mL, scalar CPX
# Experimental: as §2
# [8] = Cell viability assay (ATP bioluminescence); conditions: human
# Experimental: as §1
# Haemolysis assays = assay type: cell-based
# Experimental: Haemolysis assays were performed as previously described.
# In order to evaluate the toxic effects of the derivative 37a, haemolysis assays were performed at scalar compound concentrations in comparison with the starting hit 1 (Figure 4).
# SA-1199B [9] = assay: Time-kill curves in combination with CPX; assay type: cell-based, Staphylococcus aureus; conditions: 24 h
# Experimental: as §3
# SA-1199B [10] = assay: MIC evaluation of compound alone (broth microdilution); assay type: cell-based; conditions: Staphylococcus aureus, read-out: antibacterial activity alone (MIC)
# Experimental: as §2
# The sum of both FIC values led to a FIC index (FICI) < 0.27 showing a significant synergistic effect as widely recognised for FICI values <0.5[40].
smiles,measurement,setting,value
CCN(CC)CCOc1cc(-c2cccs2)nc2ccccc12,melting point,,84 to 86 °C
CCN(CC)CCOc1cc(-c2ccsc2)nc2ccccc12,melting point,,66 to 67 °C
Clc1ccc(-c2cc(OCCN3CCCCC3)c3ccccc3n2)s1,melting point,,99 to 101 °C
"CCCOc1ccc(-c2cc(OCCN(CC)CC)c3ccccc3n2)cc1 [Compound 1, reference compound]",depolarised bacterial membrane,SA-1199B [1]; 1 µg/mL,retained a significant depolarising effect
same,depolarised bacterial membrane,SA-1199B [1]; 5 µg/mL,retained a significant depolarising effect
same,depolarised S. aureus membrane,SA-1199B [1],> 50%
CCCOc1ccc(-c2cc(OCCN3CCCCC3)c3cc(OC)ccc3n2)cc1 [Compound 2],"SI, selectivity index",[2],>128
same,metabolic stability,[3],good metabolic stability
same,depolarised bacterial membrane,SA-1199B [4],about 20%
same,CPX MIC reduction,S. aureus SA-1199B; compound at 0.39 µg/mL,2 fold
same,CC50,[5],>100^b µg/mL
"CCCOc1ccc(-c2cc(OCCN(CC)CC)c3ccccc3n2)nc1.Cl [Compound 30a, N,N-diethyl-2-{[2–(5-propoxypyridin-2-yl)quinolin-4-yl]oxy}ethanamine hydrochloride]",melting point,,212 to 213 °C
same,compound concentration reducing the CPX MIC by 4-fold,S. aureus SA-1199B,6.25 mg/L
same,reduction of the CPX MIC,[6],4 fold
"CCCOc1ccc(-c2cc(OCCN3CCCCC3)c3ccccc3n2)nc1 [Compound 30b, 4–(2-Piperidin-1-ylethoxy)-2–(5-propoxypyridin-2-yl)quinoline]",melting point,,90 to 91 °C
same,compound concentration reducing the CPX MIC by 4-fold,S. aureus SA-1199B,12.5 mg/L
same,reduction of the CPX MIC,[6],4 fold
"CCCOc1ccc(-c2cc(OCCN(CC)CC)c3ccccc3n2)cn1.Cl [Compound 31a, N,N-diethyl-2-{[2–(6-propoxypyridin-3-yl)quinolin-4-yl]oxy}ethanamine hydrochloride]",melting point,,188 to 190 °C
same,synergistic effect / EPI activity with CPX,[6],lost EPI activity
"CCCOc1ccc(-c2cc(OCCN3CCCCC3)c3ccccc3n2)cn1.Cl [Compound 31b, 4–(2-Piperidin-1-ylethoxy)-2–(6-propoxypyridin-3-yl)quinoline hydrochloride]",melting point,,223 to 224 °C
same,synergistic effect / EPI activity with CPX,[6],lost EPI activity
"CCN(CC)CCOc1cc(-c2ccccn2)nc2ccccc12.Cl [Compound 32a, N,N-diethyl-2-[(2-pyridin-2-ylquinolin-4-yl)oxy]ethanamine hydrochloride]",melting point,,173 to 174 °C
same,synergistic effect / EPI activity with CPX,[6],lost EPI activity
"c1ccc(-c2cc(OCCN3CCCCC3)c3ccccc3n2)nc1 [Compound 32b, 4–(2-Piperidin-1-ylethoxy)-2-pyridin-2-ylquinoline]",melting point,,77 to 79.5 °C
same,synergistic effect / EPI activity with CPX,[6],lost EPI activity
"CCN(CC)CCOc1cc(-c2cccnc2)nc2ccccc12.Cl [Compound 33a, N,N-diethyl-2-[(2-pyridin-3-ylquinolin-4-yl)oxy]ethanamine hydrochloride]",melting point,,181 to 182 °C
same,synergistic effect / EPI activity with CPX,[6],lost EPI activity
"c1cncc(-c2cc(OCCN3CCCCC3)c3ccccc3n2)c1 [Compound 33b, 4–(2-Piperidin-1-ylethoxy)-2-pyridin-3-ylquinoline]",melting point,,101.5 to 102.5 °C
same,synergistic effect / EPI activity with CPX,[6],lost EPI activity
"CCN(CC)CCOc1cc(-c2ccncc2)nc2ccccc12 [Compound 34a, N,N-diethyl-2-[(2-pyridin-4-ylquinolin-4-yl)oxy]ethanamine]",melting point,,73.5 to 74 °C
same,synergistic effect / EPI activity with CPX,[6],lost EPI activity
"Cl.c1ccc2c(OCCN3CCCCC3)cc(-c3ccncc3)nc2c1 [Compound 34b, 4–(2-Piperidin-1-ylethoxy)-2-pyridin-4-ylquinoline hydrochloride]",melting point,,183.5 to 185 °C
same,synergistic effect / EPI activity with CPX,[6],lost EPI activity
"Cl.c1csc(-c2cc(OCCN3CCCCC3)c3ccccc3n2)c1 [Compound 35b, 4–(2-piperidin-1-ylethoxy)-2–(2-thienyl)quinoline hydrochloride]",melting point,,208 to 209.5 °C
same,synergistic effect with CPX,S. aureus SA-1199B,did not retain any synergistic effect
same,reduction of the CPX MIC,[6],4 fold
"c1ccc2c(OCCN3CCCCC3)cc(-c3ccsc3)nc2c1 [Compound 36b, 4–(2-Piperidin-1-ylethoxy)-2–(3-thienyl)quinoline]",melting point,,109.5 to 111 °C
same,synergistic effect with CPX,S. aureus SA-1199B,did not retain any synergistic effect
same,reduction of the CPX MIC,[6],4 fold
"CCN(CC)CCOc1cc(-c2ccc(Cl)s2)nc2ccccc12.Cl [Compound 37a, (2-{[2–(5-Chloro-2-thienyl)quinolin-4-yl]oxy}ethyl)diethylamine hydrochloride]",inhibition at 50 µM,NorA efflux pump,74.3 ± 3.5%
same,synergistic effect with CPX,[7],did not exhibit any significant synergistic effect
same,depolarised bacterial membrane,SA-1199B [1]; 1 µg/mL,about 20%
same,depolarised bacterial membrane,SA-1199B [1]; 5 µg/mL,about 20%
same,depolarised S. aureus membrane,SA-1199B [1],> 50%
same,"SI, selectivity index",[2],16.2
same,CC50 at 24 h,[8],6.33 mg/L
same,haemolytic effect,Haemolysis assays; 20 µg/mL,about 10%
same,haemolytic effect relative to starting hit 1,Haemolysis assays; 20 µg/mL,3 fold
same,haemolytic activity,Haemolysis assays; concentrations ≤ 5 µg/mL,below 2%
same,bactericidal activity of combination (time-kill),SA-1199B [9]; 37a at 3.13 and 6.25 µg/mL + CPX at its MIC,strongly significant and definitely higher bactericidal activity than that shown by CPX alone
same,bactericidal effect of combination (time-kill),SA-1199B [9]; 37a at 3.13 and 6.25 µg/mL + CPX at ¼ MIC,the same bactericidal effect as CPX tested at its MIC
same,melting point,,189 to 191 °C
same,"concentration reducing CPX MIC, fold lower than own MIC",S. aureus SA-1199B,≥ 64 fold
same,FIC (MIC in combination/MIC alone),S. aureus SA-1199B; 37a + CPX,< 0.0156
same,FIC index (FICI),S. aureus SA-1199B; 37a + CPX,< 0.27
same,compound concentration reducing the CPX MIC by 4-fold,S. aureus SA-1199B,0.39 mg/L
same,CPX MIC in combination with compound,S. aureus SA-1199B; with 37a,2.5 mg/L
same,reduction of the CPX MIC,[6],32 fold
same,MIC,SA-1199B [10],> 25 mg/L

# Reference: publication PMC7034129, “C-2 phenyl replacements to obtain potent quinoline-based Staphylococcus aureus NorA inhibitors” (Journal of Enzyme Inhibition and Medicinal Chemistry, 2020)
